Measurements from PubChem BioAssay (NCI).
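Dose response: 5 concentrations. Exposure: 48 h. Format: 96-well plates. Endpoint: linear interpolation; highest concentration if not reached. The concentration for full growth arrest is given as TGI.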

Test system: CAKI-1 renal
Experiment: DTP human tumour cell line panel, 48 h

SMILES	TGI [µM]
CN(C)C(=S)/N=c1\ssc(=S)n1Cc1ccccc1	> 56.2
Cn1c(O)c(C=Nc2ccccc2[N+](=O)[O-])c(=O)n(C)c1=O	> 100
COc1cc(-c2cc(-c3ccccc3)nc(-c3c(OC)ccc4c(C)cc(=O)oc34)c2)cc(OC)c1OC	> 100
CCOC(=O)c1nc2ccccc2nc1NCc1cc(OC)c(OC)c(OC)c1	> 100
C[C@H](NC(=O)c1ccc(CNC(=O)/C=C/c2cccc(Oc3ccccc3)c2)cc1)c1ccccc1	59.5
CCN(CC)/C(Sc1ccccc1)=C(\C(Cl)=C(Cl)Cl)[N+](=O)[O-]	29.2
Brc1cc(CCOC2CCCCO2)c(-c2sccc2CCOC2CCCCO2)s1 (centres undefined)	> 100
CC(C)=CCC/C(=C/CC/C(=C\CCc1ccoc1)C(=O)O)C(=O)O	> 100
CCCCc1ccc(Nc2nc(SC)c3[nH]cnc3n2)cc1	> 100
Cc1cccc(CP(Cc2cccc(C)c2)CC2(Cp3c4ccccc4c4ccccc43)COC2)c1	> 76.5
COc1cc(OC)nc(-n2c(N)c(C#N)c3ccc([N+](=O)[O-])cc3c2=O)n1	> 100
COC(=O)c1sc(=S)sc1SCc1ccc(CSc2sc(=S)sc2C(=O)OC)cc1	> 100
CCOC(=O)c1cn2c(n1)sc1c(Cl)c(Cl)ccc12	65.3
CN1CCN(c2ncc3c(n2)sc2c(=O)n(-c4ccccc4)cnc23)CC1	> 100
COc1ccc(C(=O)c2sc(Nc3ccc(Cl)cc3)nc2N)cc1	42.2
Cc1cn(C2CC(O)C(COC(=O)NCCC(F)(F)C(F)(F)C(F)(F)C(F)(F)F)O2)c(=O)[nH]c1=O (centres undefined)	> 100
CC(C)(C)OC(=O)N1CCC(C(=O)O)CC1	> 100
C/C=C\C(CC(=O)NCCC1CN(S(=O)(=O)c2ccc(C)cc2)c2ccccc21)CC(=O)OC (centres undefined)	> 100
CN(C)CCN(C)c1ccc2c(=O)n(CCN(C)C)c(=O)n3c4ccccc4c(=O)c1c23	1.08
O=C(CCc1ccc(O)c(O)c1)NCCc1cc(O)cc(O)c1	> 100
Cc1nn(C(=O)c2ccc(Cl)cc2)c2c1C(c1ccccc1[N+](=O)[O-])SC(N)=N2 (centres undefined)	> 10
C=CCc1cccc2cc(C(=O)Nc3ccccc3)c(=N)oc12	> 100

Test system: HCC-2998 colon
Experiment: DTP human tumour cell line panel, 48 h

SMILES	TGI [µM]
CN(C)C(=S)/N=c1\ssc(=S)n1Cc1ccccc1	> 27.7
Cn1c(O)c(C=Nc2ccccc2[N+](=O)[O-])c(=O)n(C)c1=O	> 100
COc1cc(-c2cc(-c3ccccc3)nc(-c3c(OC)ccc4c(C)cc(=O)oc34)c2)cc(OC)c1OC	> 100
CCOC(=O)c1nc2ccccc2nc1NCc1cc(OC)c(OC)c(OC)c1	> 100
C[C@H](NC(=O)c1ccc(CNC(=O)/C=C/c2cccc(Oc3ccccc3)c2)cc1)c1ccccc1	> 100
CCN(CC)/C(Sc1ccccc1)=C(\C(Cl)=C(Cl)Cl)[N+](=O)[O-]	34.3
Brc1cc(CCOC2CCCCO2)c(-c2sccc2CCOC2CCCCO2)s1 (centres undefined)	> 100
CC(C)=CCC/C(=C/CC/C(=C\CCc1ccoc1)C(=O)O)C(=O)O	> 100
CCCCc1ccc(Nc2nc(SC)c3[nH]cnc3n2)cc1	> 100
Cc1cccc(CP(Cc2cccc(C)c2)CC2(Cp3c4ccccc4c4ccccc43)COC2)c1	> 100
COc1cc(OC)nc(-n2c(N)c(C#N)c3ccc([N+](=O)[O-])cc3c2=O)n1	> 100
COC(=O)c1sc(=S)sc1SCc1ccc(CSc2sc(=S)sc2C(=O)OC)cc1	> 100
CCOC(=O)c1cn2c(n1)sc1c(Cl)c(Cl)ccc12	98
CN1CCN(c2ncc3c(n2)sc2c(=O)n(-c4ccccc4)cnc23)CC1	> 100
COc1ccc(C(=O)c2sc(Nc3ccc(Cl)cc3)nc2N)cc1	44.7
Cc1cn(C2CC(O)C(COC(=O)NCCC(F)(F)C(F)(F)C(F)(F)C(F)(F)F)O2)c(=O)[nH]c1=O (centres undefined)	> 100
CC(C)(C)OC(=O)N1CCC(C(=O)O)CC1	> 100
C/C=C\C(CC(=O)NCCC1CN(S(=O)(=O)c2ccc(C)cc2)c2ccccc21)CC(=O)OC (centres undefined)	> 100
CN(C)CCN(C)c1ccc2c(=O)n(CCN(C)C)c(=O)n3c4ccccc4c(=O)c1c23	2.05
O=C(CCc1ccc(O)c(O)c1)NCCc1cc(O)cc(O)c1	> 100
Cc1nn(C(=O)c2ccc(Cl)cc2)c2c1C(c1ccccc1[N+](=O)[O-])SC(N)=N2 (centres undefined)	> 10
C=CCc1cccc2cc(C(=O)Nc3ccccc3)c(=N)oc12	18.4
